Consider 1 molecule from article PMC6013220, “Activation of TREK currents by riluzole in three subgroups of cultured mouse nodose ganglion neurons” (PLoS ONE, 2018).

Test [1] has as its system T1, TREK subfamily channels (TREK-1, TREK-2 and TRAAK).
T1 construct: gene Kcnk2; native channels in cultured nodose ganglion neurons; the authors argue mainly TREK-1, subtype not proven
Briefly: whole-cell perforated patch clamp, outward current in native neurons. Type of test: cell-based, Mus musculus. As to conditions: activator, unreliable (extrapolated), holding -30 mV, blocker cocktail, room temperature.

Another test has as its target T2, human TRESK (KCNK18) (Homo sapiens, UniProt Q7Z418).
T2 construct: full-length cDNA in pcDNA3.1, co-transfected with separate GFP cDNA in tsA201 cells
T2 sequence (Q7Z418 1-384): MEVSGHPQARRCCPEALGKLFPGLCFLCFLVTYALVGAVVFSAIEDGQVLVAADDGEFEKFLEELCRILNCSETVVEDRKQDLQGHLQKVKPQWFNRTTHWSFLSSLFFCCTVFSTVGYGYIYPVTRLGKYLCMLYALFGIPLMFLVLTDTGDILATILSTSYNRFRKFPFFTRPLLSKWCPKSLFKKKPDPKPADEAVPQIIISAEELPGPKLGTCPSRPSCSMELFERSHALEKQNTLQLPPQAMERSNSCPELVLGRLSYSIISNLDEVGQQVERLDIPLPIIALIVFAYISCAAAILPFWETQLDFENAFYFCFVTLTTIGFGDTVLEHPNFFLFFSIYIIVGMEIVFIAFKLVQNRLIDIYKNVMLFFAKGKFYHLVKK
Nature of the test: whole-cell patch clamp, current at -40 mV. The format is cell-based. A general note: The patch-clamp technique gives a direct electrical read-out from membranes.

In the case of `Nc1nc2ccc(OC(F)(F)F)cc2s1` [riluzole], the EC50 in test [1] was 392.2 ± 182.8 µM. Further, at human TRESK (KCNK18), the inhibition at 100 µM was 64%.

A word on the EC50: it is the concentration needed to bring the measured effect to its halfway point. As a reminder, the inhibition is how much of the control response was suppressed. A high value points to a strong effect.
